Reference: ChEMBL document CHEMBL3039007, “Structure-based identification of OATP1B1/3 inhibitors” (Mol Pharmacol, 2013)

Experiments:
[1] = target: T1, Solute carrier organic anion transporter family member 1B1 (Homo sapiens, UniProt Q9Y6L6); conditions: chinese hamster, cho, 10 µM
T1 sequence (Q9Y6L6 whole entry): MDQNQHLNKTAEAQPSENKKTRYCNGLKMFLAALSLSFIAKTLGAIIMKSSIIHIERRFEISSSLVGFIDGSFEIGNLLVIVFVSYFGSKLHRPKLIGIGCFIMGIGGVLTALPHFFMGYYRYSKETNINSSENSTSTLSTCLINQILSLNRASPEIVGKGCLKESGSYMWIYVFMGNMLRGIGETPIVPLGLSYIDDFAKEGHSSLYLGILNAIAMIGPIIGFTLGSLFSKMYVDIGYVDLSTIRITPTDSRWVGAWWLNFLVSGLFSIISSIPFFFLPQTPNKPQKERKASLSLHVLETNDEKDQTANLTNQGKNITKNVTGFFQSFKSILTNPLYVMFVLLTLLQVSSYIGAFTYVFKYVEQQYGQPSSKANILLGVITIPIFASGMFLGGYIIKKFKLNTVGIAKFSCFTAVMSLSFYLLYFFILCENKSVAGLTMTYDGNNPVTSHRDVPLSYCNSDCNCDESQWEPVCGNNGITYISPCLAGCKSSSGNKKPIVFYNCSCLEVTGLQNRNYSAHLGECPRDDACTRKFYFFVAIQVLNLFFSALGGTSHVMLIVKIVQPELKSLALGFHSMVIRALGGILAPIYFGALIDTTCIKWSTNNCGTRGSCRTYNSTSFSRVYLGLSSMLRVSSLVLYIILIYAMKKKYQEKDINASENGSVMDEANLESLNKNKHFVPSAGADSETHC

[2] = target: T2, Solute carrier organic anion transporter family member 1B3 (Homo sapiens, UniProt Q9NPD5); conditions: chinese hamster, cho, 10 µM
T2 sequence (Q9NPD5 whole entry): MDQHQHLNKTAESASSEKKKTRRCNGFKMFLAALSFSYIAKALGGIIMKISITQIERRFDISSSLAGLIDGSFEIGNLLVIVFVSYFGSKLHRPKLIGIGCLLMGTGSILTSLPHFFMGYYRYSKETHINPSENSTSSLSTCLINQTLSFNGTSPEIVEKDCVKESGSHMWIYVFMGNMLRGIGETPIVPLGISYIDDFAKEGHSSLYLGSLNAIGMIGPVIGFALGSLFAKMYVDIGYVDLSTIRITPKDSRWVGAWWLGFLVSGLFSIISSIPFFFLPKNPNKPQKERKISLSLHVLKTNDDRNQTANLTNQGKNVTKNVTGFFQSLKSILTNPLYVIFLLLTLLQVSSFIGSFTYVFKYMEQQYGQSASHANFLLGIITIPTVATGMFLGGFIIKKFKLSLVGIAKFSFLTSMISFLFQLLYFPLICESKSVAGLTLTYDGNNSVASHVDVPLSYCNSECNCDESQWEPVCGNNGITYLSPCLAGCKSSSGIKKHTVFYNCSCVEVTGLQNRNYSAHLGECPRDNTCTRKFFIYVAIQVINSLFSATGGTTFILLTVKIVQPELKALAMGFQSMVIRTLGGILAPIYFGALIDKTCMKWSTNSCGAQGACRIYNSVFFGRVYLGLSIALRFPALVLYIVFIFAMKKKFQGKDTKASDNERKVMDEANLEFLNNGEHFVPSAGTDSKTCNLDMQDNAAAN

Row | Structure (SMILES) | residual activity [1] [%] | residual activity [2] [%]
1 | Cc1cccc(CN2CCN(C(c3ccccc3)c3ccc(Cl)cc3)CC2)c1.Cl.O (centres undefined) | 80.22 | 79.23
2 | CNC(C)(C)Cc1ccccc1.O=S(=O)(O)O | 107.5 | 109.4
3 | CCN(CC)CCNC(=O)c1cc(Cl)c(N)cc1OC.Cl | 84.82 | 108.2
4 | CN1CCc2c(c3ccccc3n2Cc2ccccc2)C1.CN1CCc2c(c3ccccc3n2Cc2ccccc2)C1.O=S(=O)(O)c1cccc2c(S(=O)(=O)O)cccc12 | 69.52 | 77.15
5 | COc1cc2c3cc1Oc1cc(ccc1O)C[C@@H]1c4c(cc(OC)c(O)c4Oc4ccc(cc4)C[C@@H]3N(C)CC2)CC[N+]1(C)C.[Cl-] | 99.28 | 110.3
6 | C[C@H]1CC[C@]2(NC1)O[C@H]1C[C@H]3[C@@H]4CC[C@H]5C[C@@H](O)CC[C@]5(C)[C@H]4CC[C@]3(C)[C@H]1[C@@H]2C.Cl | 108.8 | 99.59
7 | CSCC[C@H](NC=O)C(=O)N[C@@H](CC(C)C)C(=O)N[C@@H](Cc1ccccc1)C(=O)O | 76.72 | 120.4
8 | COc1cc(OC)c2c(c1)O[C@H](c1ccc(OC)c(OC)c1)[C@@H](O)C2 | 123.7 | 103.7
9 | CC(=O)[C@H]1CC[C@H]2[C@@H]3CC[C@@H]4C[C@H](O)CC[C@]4(C)[C@H]3C[C@H](O)[C@]12C | 97.69 | 117.8
10 | CSCC[C@H](N)C(=O)N[C@@H](CC(C)C)C(=O)N[C@@H](Cc1ccccc1)C(=O)OC(C)=O | 102.4 | 94.57
11 | CC(=O)[C@H]1CC[C@H]2[C@@H]3CC(=O)C4=CC(=O)CC[C@]4(C)[C@H]3CC[C@]12C | 38.54 | 75.51
12 | C[C@@H]1O[C@@H](O[C@H]2[C@H](O[C@H]3CC[C@]4(C)C5CC=C6[C@@H]7CC(C)(C)CC[C@]7(C(=O)O)CC[C@]6(C)[C@]5(C)CC[C@@H]4[C@]3(C)CO)OC[C@H](O)[C@@H]2O)[C@H](O)[C@H](O)[C@H]1O (some centres undefined) | 103.8 | 112.9
13 | CC1=CC(=O)[C@H]2C(C)(C)CCC[C@]2(C)[C@@]1(O)CCc1ccoc1 | 48.25 | 78.78
14 | COc1cc(OC)c2c(c1Cl)O[C@@]1(C(=O)CC(=O)C[C@H]1C)C2=O | 81.69 | 85.63
15 | CC(=O)O[C@@H]1C[C@H]2C(C)(C)C=CC(=O)[C@@]2(C)[C@H]2CC[C@]3(C)[C@@H](c4ccoc4)OC(=O)[C@H]4O[C@]43[C@]21C | 18.57 | 46.89
16 | CC(=O)O[C@H]1CC[C@@]2(C)C(=CC[C@@H]3[C@@H]2CC[C@]2(C)C4C(C[C@@H]32)OC2(CCC(C)CO2)[C@H]4C)C1 (some centres undefined) | 111 | 105.4
17 | COC(=O)[C@@H]1OC(=O)[C@H]2O[C@]23[C@@]2(C)[C@H](CC[C@@]13C)[C@@]1(C)[C@@H](OC(C)=O)C[C@@H](OC(C)=O)C(C)(C)[C@@H]1C[C@@H]2O | 66.58 | 72.87
18 | CC(=O)O[C@H]1C[C@@H](OC(C)=O)C(C)(C)[C@@H]2CC(=O)[C@]3(C)[C@H](CC[C@@]4(C)[C@H](c5ccoc5)OC(=O)[C@H]5O[C@]543)[C@@]12C | 55.58 | 72.19
19 | CC(=O)O[C@H]1CC[C@@]2(C)[C@@H](CC[C@@H]3[C@@H]2CC[C@]2(C)[C@@H]4[C@H](C[C@@H]32)O[C@@]2(CCC(C)CO2)[C@H]4C)C1 (some centres undefined) | 112.3 | 107.6

Row | Structure (SMILES) | residual activity [1] [%] | residual activity [2] [%]
20 | CC(=O)O[C@H]1CC[C@]2(C)C3=C(CC[C@H]2C1(C)C)[C@@]1(C)CC[C@H]([C@H](C)CCC=C(C)C)[C@]1(C)CC3 | 29.18 | 40.21
21 | COC(=O)[C@@H]1OC(=O)[C@H]2O[C@]23[C@]2(C)[C@H](O)C[C@H]4C(C)(C)[C@H](OC(C)=O)C[C@H](OC(C)=O)[C@]4(C)[C@H]2CC[C@@]13C | 70.09 | 83.24
22 | CC(C)=CCC[C@]1(C)C=Cc2c(O)c3c(c(CC=C(C)C)c2C1)O[C@]12C(=C[C@@H]4C[C@H]1C(C)(C)O[C@@]2(C/C=C(/C)C(N)=O)C4=O)C3=O | 57.81 | 70.77
23 | CC(=O)O[C@H]1C[C@@H](OC(C)=O)C(C)(C)[C@@H]2C[C@@H](OC(C)=O)[C@]3(C)[C@H](CC[C@]4(C)[C@H](c5ccoc5)C(=O)[C@H]5O[C@@]534)[C@@]12C | 26.02 | 57.61
24 | CC(=O)O[C@H]1C[C@@H](OC(C)=O)C(C)(C)[C@@H]2C[C@@H](OC(C)=O)[C@@]3(C)C4=CC(=O)O[C@@H](c5ccoc5)[C@]4(C)CC[C@@H]3[C@@]12C | 107.2 | 104.2
25 | CC1(C)C(=O)C=C[C@]2(C)[C@H]3CC[C@@]4(C)[C@H](c5ccoc5)OC(=O)[C@H]5O[C@]54[C@]3(C)C=C[C@@H]12 | 56.92 | 75.29
26 | CC1CC[C@]2(OC1)OC1C[C@H]3[C@@H]4CC[C@H]5C[C@@H](O)CC[C@]5(C)C4=CC[C@]3(C)C1[C@@H]2C (some centres undefined) | 109.1 | 108.3
27 | CC(=O)O[C@H]1C[C@@H](OC(C)=O)C(C)(C)[C@@H]2CC(=O)[C@]3(C)[C@H](CC[C@@]4(C)[C@H](C(=O)O)OC(=O)[C@H]5O[C@]543)[C@@]12C | 72.69 | 72.75
28 | COC(=O)[C@@]1(C)CCC[C@]2(C)c3ccc(O)c(C(C)C)c3CC[C@@H]12 | 90.51 | 122.1
29 | CC(=O)Oc1ccc2c(c1C(C)C)CC[C@H]1C(C)(C)CCC[C@]21C | 70.34 | 105.1
30 | CC(=O)O[C@@H]1C[C@H]2C(C)(C)C(=O)[C@H]3O[C@H]3[C@]2(C)[C@H]2CC[C@@]3(C)[C@H](c4ccoc4)OC(=O)[C@H]4O[C@]43[C@@]21C | 58.52 | 88.38
31 | CC1(C)[C@H](O)C[C@H](O)[C@]2(C)[C@H]3CC[C@@]4(C)[C@H](c5ccoc5)OC(=O)[C@H]5O[C@]54[C@]3(C)C(=O)C[C@@H]12 | 48.25 | 93.94
32 | CC(C)c1c(O)c(-c2cc3c(c(C(C)C)c2O)CC[C@H]2C(C)(C)CCC[C@]32C)cc2c1CC[C@H]1C(C)(C)CCC[C@]21C | 64.65 | 91.38
33 | OC[C@@H](O)C(O)[C@H](O)CO | 121.4 | 118.8
34 | O=C(Nc1ccccc1)Nc1ccccc1 | 86.66 | 104.3
35 | NC(=O)CN1CCCC1=O | 88.77 | 103.1
36 | Cc1onc(-c2ccccc2)c1C(=O)N[C@@H]1C(=O)N2[C@@H]1SC(C)(C)[C@@H]2C(=O)[O-].[Na+] | 76.67 | 90.07
37 | N=C(N)c1ccc(OCCCCCOc2ccc(C(=N)N)cc2)cc1.O=S(=O)(O)CCO | 99.74 | 156
